These results are taken from patent publication US20130090494A1, “TETRAKIS[BIS(DIHYDROXYPHOSPHORYL)METHYL]CALIX[4]ARENE OR ITS SODIUM SALT THEREOF AS FIBRIN POLYMERIZATION INHIBITORS” (priority 2010, published 2013).

Series [1] concerns the target T1, fibrin polymerization in the thrombin-fibrinogen reaction (Homo sapiens, UniProt P02671+P02675+P02679).
T1 construct: The fibrinogen was prepared by sodium sulfate precipitation from human plasma; from tissue; host or cells: human blood plasma
T1 sequence (P02671 20-644 isoform P02671-2 limits assumed): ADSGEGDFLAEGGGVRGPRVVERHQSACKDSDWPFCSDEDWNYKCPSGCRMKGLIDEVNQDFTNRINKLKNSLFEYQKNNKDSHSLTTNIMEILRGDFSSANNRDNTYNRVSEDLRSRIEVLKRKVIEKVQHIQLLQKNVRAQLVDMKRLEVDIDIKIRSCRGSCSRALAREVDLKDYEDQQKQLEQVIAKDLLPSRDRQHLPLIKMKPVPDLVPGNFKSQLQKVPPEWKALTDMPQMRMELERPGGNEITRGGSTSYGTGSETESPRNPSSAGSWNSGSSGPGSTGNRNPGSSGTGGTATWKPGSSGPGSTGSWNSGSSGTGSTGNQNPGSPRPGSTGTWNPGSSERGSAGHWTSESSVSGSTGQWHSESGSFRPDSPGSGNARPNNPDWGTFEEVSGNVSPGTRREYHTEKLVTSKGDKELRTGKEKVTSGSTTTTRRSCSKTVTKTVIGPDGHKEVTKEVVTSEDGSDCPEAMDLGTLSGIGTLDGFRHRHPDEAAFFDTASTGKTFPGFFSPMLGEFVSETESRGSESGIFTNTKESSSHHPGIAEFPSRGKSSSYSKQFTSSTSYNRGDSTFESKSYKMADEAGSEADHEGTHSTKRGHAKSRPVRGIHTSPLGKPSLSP
T1 sequence (P02675 45-491 limits assumed): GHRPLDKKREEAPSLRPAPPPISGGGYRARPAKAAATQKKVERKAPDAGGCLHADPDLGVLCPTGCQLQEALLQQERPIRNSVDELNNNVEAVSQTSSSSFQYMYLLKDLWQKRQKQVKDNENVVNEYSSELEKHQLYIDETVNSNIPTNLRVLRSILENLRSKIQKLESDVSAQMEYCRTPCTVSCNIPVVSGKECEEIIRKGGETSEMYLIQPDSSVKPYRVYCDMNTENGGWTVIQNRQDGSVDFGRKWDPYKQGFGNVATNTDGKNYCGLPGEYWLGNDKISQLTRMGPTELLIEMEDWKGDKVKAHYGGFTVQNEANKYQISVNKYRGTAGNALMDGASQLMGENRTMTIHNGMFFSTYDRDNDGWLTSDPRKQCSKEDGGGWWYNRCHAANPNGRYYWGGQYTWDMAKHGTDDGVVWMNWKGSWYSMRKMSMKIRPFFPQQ
T1 sequence (P02679 27-437 isoform P02679-2 limits assumed): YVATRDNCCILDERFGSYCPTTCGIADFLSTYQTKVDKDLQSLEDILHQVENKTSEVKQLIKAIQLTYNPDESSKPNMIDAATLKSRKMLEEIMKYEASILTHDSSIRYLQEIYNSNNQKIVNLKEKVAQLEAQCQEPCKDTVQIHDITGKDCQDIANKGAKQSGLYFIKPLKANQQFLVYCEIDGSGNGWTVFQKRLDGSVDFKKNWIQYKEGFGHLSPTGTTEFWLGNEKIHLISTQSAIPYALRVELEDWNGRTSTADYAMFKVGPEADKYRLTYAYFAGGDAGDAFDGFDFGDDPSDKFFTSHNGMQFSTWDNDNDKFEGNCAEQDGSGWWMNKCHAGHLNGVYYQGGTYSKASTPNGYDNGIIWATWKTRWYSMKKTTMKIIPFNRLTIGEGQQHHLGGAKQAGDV
The series is described as follows: Turbidity analysis of fibrin polymerization in the thrombin-fibrinogen reaction. Type of series: biochemical. The protocol: (§1) The fibrin polymerization by the action of thrombin on fibrinogen consists of two reactions: 1) thrombin-catalyzed conversion of fibrinogen to fibrin and 2) polymerization of the fibrin monomer to form three-dimensional network, which is the framework of thrombus.
(§2) The turbidity analysis of desAABB fibrin polymerization and of fibrin polymerization in the fibrinogen+thrombin reaction in the present and the absent of declared calixarenes C-192 and C-145
(§3) The fibrinogen was prepared by sodium sulfate precipitation from human plasma. DesAABB fibrin monomer was prepared in 0.02 M acetic acid was prepared during reaction fibrinogen+thrombin [10]. Polymerization of fibrin desAA and desAABB was studied in the polymerization medium containing at a low concentration thrombin at pH 5.3 [7]. In the experience of the system fibrinogen+thrombin in polymerization medium to add declared calixarene C-192 at a concentration of 0.5 mM.

Series [2] concerns the target T2, desAABB fibrin monomer polymerization (Homo sapiens, UniProt P02671+P02675+P02679).
T2 construct: DesAABB fibrin monomer was prepared in 0.02 M acetic acid was prepared during reaction fibrinogen+thrombin; The fibrinogen was prepared by sodium sulfate precipitation from human plasma; from tissue; host or cells: human blood plasma; fibrinogen converted with thrombin
T2 sequence (P02671 36-866 limits assumed): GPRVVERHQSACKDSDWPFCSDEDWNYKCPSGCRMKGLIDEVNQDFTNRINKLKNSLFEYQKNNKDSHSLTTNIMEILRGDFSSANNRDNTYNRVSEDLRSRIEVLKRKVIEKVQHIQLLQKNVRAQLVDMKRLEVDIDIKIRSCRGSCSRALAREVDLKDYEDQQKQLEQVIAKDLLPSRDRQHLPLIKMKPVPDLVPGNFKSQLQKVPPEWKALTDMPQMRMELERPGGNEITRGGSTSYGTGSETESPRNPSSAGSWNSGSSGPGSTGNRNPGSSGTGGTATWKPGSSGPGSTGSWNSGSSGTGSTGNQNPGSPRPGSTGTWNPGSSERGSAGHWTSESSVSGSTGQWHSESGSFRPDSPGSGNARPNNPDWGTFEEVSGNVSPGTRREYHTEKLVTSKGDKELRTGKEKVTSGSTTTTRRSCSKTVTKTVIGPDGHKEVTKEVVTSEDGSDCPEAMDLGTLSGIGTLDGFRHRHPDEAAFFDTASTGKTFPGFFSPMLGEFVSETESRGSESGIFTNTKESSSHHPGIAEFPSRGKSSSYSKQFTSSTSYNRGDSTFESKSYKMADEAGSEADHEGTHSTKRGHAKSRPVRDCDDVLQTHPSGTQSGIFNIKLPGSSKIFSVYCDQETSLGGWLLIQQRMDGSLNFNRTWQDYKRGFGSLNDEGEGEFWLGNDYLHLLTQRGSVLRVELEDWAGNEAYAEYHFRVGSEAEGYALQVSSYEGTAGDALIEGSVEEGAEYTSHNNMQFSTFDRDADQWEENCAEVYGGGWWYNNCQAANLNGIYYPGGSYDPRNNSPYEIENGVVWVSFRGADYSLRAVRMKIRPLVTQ
T2 sequence (P02675 45-491 limits assumed): T1 sequence (P02675 45-491 limits assumed)
T2 sequence (P02679 27-453): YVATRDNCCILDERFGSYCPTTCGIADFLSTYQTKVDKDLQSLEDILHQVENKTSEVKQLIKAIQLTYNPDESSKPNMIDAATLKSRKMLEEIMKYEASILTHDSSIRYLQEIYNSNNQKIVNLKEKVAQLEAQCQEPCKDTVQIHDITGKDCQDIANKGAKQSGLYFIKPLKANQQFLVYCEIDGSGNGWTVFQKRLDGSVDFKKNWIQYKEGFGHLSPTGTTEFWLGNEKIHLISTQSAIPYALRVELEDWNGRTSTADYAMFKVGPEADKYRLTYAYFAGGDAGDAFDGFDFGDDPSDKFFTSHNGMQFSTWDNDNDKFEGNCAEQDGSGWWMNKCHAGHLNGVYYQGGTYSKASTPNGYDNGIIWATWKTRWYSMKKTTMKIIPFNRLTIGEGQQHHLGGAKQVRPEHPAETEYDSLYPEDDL
The series is described as follows: Turbidity analysis of desAABB fibrin monomer polymerization. The settings on record: for final (maximum) turbidity of fibrin clot (Δh) / lag-time (τ) / maximum rate of fibrin polymerization (Vmax): desAABB fibrin polymerization medium, 0.5 μM, FIG. 2. In kind it is biochemical. The protocol:
as §1, §2, §3
The declared calixarene C-192 and C-145 was added on the desAABB fibrin polymerization medium at a concentration of 0.5 μM.

Series [3] concerns human blood plasma coagulation (internal pathway). In words: Activated partial thromboplastin time (APTT) of human blood plasma. The text has this: (§4) The measuring of prothrombin time (PT) and activated partial thromboplastin time (APTT) for coagulation of human plasma in the presence of calixarene C-192.
(§5) The effects of calixarene C-192 on the coagulation of human blood plasma were studied using a coagulometer (CT 2410 ‘Solar’, Belarus).
The activated partial thromboplastin time calculated by the method. In the APTT-test comparing the formation of the fibrin clot in control samples: pure blood plasma specimens and blood plasma, in which the solute of calixarene C-192 at concentration of 50 μM. The prothrombin ratio Calculated by formula (1) equals 5.4.

In series [4] the target is T3, fibrin protofibril formation (Homo sapiens, UniProt P02671+P02675+P02679).
T3 construct: The fibrinogen was prepared by sodium sulfate precipitation from human plasma; from tissue; host or cells: human blood plasma
T3 sequence (P02671 20-644 isoform P02671-2 limits assumed): T1 sequence (P02671 20-644 isoform P02671-2 limits assumed)
T3 sequence (P02675 45-491 limits assumed): T1 sequence (P02675 45-491 limits assumed)
T3 sequence (P02679 27-437 isoform P02679-2 limits assumed): T1 sequence (P02679 27-437 isoform P02679-2 limits assumed)
In words: Transmission electron microscopy of fibrin formed in the thrombin-fibrinogen reaction. To be noted: 50000 magnification, FIG. 4. Type of series: biochemical. From the text: The study of desAABB fibrin polymerization in the thrombin-fibrinogen reaction by transmission electron microscopy in the present and the absent of declared calixarenes C-192 and C-145
The analysis of the electron micrographs of the fibrin formed in the fibrinogen+thrombin reaction at different time intervals after the polymerization process beginning in the absence of calixarene C-192 (FIG. 4, A and B) and in the presence of calixarene C-192 (FIG. 4, C, D).
The samples of polymerizing fibrin produced in the thrombin-fibrinogen reaction in the absence or the presence of calixarene C-192 were taken out of the reaction medium at various times, placed on a carbon-coated grid for 2 min and then stained with 1% (w/v) uranyl acetate for 1 min. Transmission electron microscopy was performed with an H-600 electron microscope (Hitachi, Tokyo, Japan). Electron micrographs were obtained at −50 000 magnification.

Series [5] in a line: Acute toxicity in healthy adult mice. The settings on record: mouse, in vivo, oral; healthy adult mice, perorally.
In the next series the test system is mice. The series is described as follows: Acute toxicity in healthy adult mice. To be noted: mouse, in vivo.
In series [6] the test system is human blood plasma coagulation (outer pathway). In words: Prothrombin time (PT) of human blood plasma. As to the method: as §4, §5
Using coagulometer measured the prothrombin ratio, which is calculated using the formula: […]
where: PR—prothrombin ratio; PTe—prothrombin time in the investigating blood plasma; PTc—prothrombin time in the control blood plasma.
The prothrombin time were calculated using the method. The dissolved calixarene C-192 at concentration of 50 μM was added to cuvette in the experience. The prothrombin ratio calculating by formula (I) equals 1.6.

For a further series, the target named is T4, fibrin polymerization (Homo sapiens, UniProt P02671+P02675+P02679).
T4 sequence (P02671 20-644 isoform P02671-2 limits assumed): T1 sequence (P02671 20-644 isoform P02671-2 limits assumed)
T4 sequence (P02675 45-491 limits assumed): T1 sequence (P02675 45-491 limits assumed)
T4 sequence (P02679 27-437 isoform P02679-2 limits assumed): T1 sequence (P02679 27-437 isoform P02679-2 limits assumed)
The series is described as follows: Turbidity analysis of fibrin polymerization (system not specified). Type of series: biochemical. The settings on record: applicant's own experiments. From the text: Furthermore, because of electro neutrality of the declared calixarene-145 molecule, it may be more suitable for injection to a living organism as an inhibitor of fibrin polymerization and the process of blood clotting, as well.

Where [7] appears, read: fibrinogen+thrombin system, C-192 at 0.5 mM, FIG. 1.
The mark [8] stands for this setting: normal human blood plasma, FIG. 3.

The structures appear in SMILES notation. “Also recorded” adds a separate entry of the source. Structures can show the parent of a compound that is named as a salt.

Take `O=P(O)(O)C(c1cc2c(O)c(c1)Cc1cc(C(P(=O)(O)O)P(=O)(O)O)cc(c1O)Cc1cc(C(P(=O)(O)O)P(=O)(O)O)cc(c1O)Cc1cc(C(P(=O)(O)O)P(=O)(O)O)cc(c1O)C2)P(=O)(O)O` [calixarene C-192, 5,11,17,23-tetrakis[bis(dihydroxyphosphoryl)methyl]calix[4]arene]: in series [1] (setting [7]), the “final turbidity of fibrin clot (Δh)” value was “decreased; also recorded: reduced”, the “lag-time (τ)” value is “increases; also recorded: significantly increased” and the “maximum rate of fibrin polymerization (Vmax)” value (“maximum rate” below) is given as “significantly decreased; also recorded: greatly reduced”. Moreover, the IC50 in series [1] (turbidity analysis, thrombin-fibrinogen reaction) was 500 nM. In series [2] (listed as C-192), the “final (maximum) turbidity of fibrin clot (Δh)” value is “decreased”, the “lag-time (τ)” value was “increased significantly” and the “maximum rate” value is recorded as “decreased”. Moreover, the IC50 in series [2] (fibrin monomer polymerization) was 1000 nM. For the same molecule, in series [3] (APTT-test, human plasma, 50 μM), the “prothrombin ratio calculated by formula (1) in the APTT-test” value is on record as 5.4. Also, the “concentration that doubles the APTT” value in series [3] (setting [8]) is given as 1.7·10^−5 M. In addition, the “effect on fibrin polymerization stage seen by electron microscopy” value in series [4] was “inhibits the first stage of fibrin polymerization protofibril formation; also recorded: inhibits the first stage of fibrin polymerization protofibril building”. For the same molecule, the LD50 in series [5] came out at 780 mg/kg. For the same molecule, in the series on mice, the toxicity class result is “median toxic compound”. Further, in series [6] (setting [8]), the “concentration that doubles the prothrombin time (PT)” value is 7.0·10^−5 M. Also, the “prothrombin ratio (PR=PTe/PTc)” value in series [6] (prothrombin time, human plasma, 50 μM) turned out to be 1.6.
In the case of `O=P(O)(O)C(c1cc2c(O)c(c1)Cc1cc(C(P(=O)(O)O)P(=O)(O)O)cc(c1O)Cc1cc(C(P(=O)(O)O)P(=O)(O)O)cc(c1O)Cc1cc(C(P(=O)(O)O)P(=O)(O)O)cc(c1O)C2)P(=O)(O)O` [calixarene C-145, octasodium salt of 5,11,17,23-tetrakis [bis](dihydroxyphosphoryl)methyl calix[4]arene], the IC50 against fibrin polymerization worked out at 2500 nM. Also, in series [2] (listed as C-145), the “final (maximum) turbidity of fibrin clot (Δh)” value is on record as “significantly decreased”, the “lag-time (τ)” value is “increases; also recorded: increased significantly” and the “maximum rate” value is recorded as “significantly decreased”.
